Tests used:
[1] = Moisture uptake / hygroscopicity (moisture vapor isotherm); type: physicochemical; details: for Hygroscopicity (remark in words): salt screen summary table
Protocol: Moisture sorption isotherms were collected in a VTI SGA-100 Symmetric Vapor Analyzer using approximately 10 mg of sample. The sample was dried at 60° C. until the loss rate of less than or equal to 0.0005 weight percent per minute was obtained for 10 minutes. […] Equilibration at each RH was reached when the rate of less than or equal to 0.0003 weight percent per minute for 35 minutes was achieved, or at a maximum of 600 minutes.

[2] = Water solubility of free base and salts from the salt screen; details: for Solubility (remark in words): salt screen
Protocol: The water solubility of the various salts was determined using 10 mg solids per mL water.

[3] = Thermal stability by DSC/TGA; type: physicochemical
Protocol: The sample (about 10-30 mg) was placed in a previously tared platinum pan. The weight of the sample was measured accurately and recorded to a thousand of a milligram. The furnace was purged with nitrogen gas at 100 mL/min. Data were collected between room temperature and 300° C. at 10° C./min heating rate.
The sample (about 2-6 mg) was weighed in an aluminum pan, accurately recorded to a hundredth of a milligram, and transferred to the DSC. The instrument was purged with nitrogen gas at 50 mL/min. Data were collected between room temperature and 300° C. at a 10° C./min heating rate.

[4] = Storage stability under controlled temperature / relative humidity; type: physicochemical
[5] = Solid-state stability on exposure to high humidity and high temperature; type: physicochemical
[6] = water solubility, 10 mg solids per mL water
[7] = water, thermodynamic from solid

| Hygroscopicity (remark in words) [1] | solubility [2, 7] | Compound | solubility [2, 6] | Solubility (remark in words) ([2]; water solubility) | also measured |
| --- | --- | --- | --- | --- | --- |
| Crystalline but Hygroscopic. |  | Phosphate | 0.026 mg/mL |  | Weight gain due to absorption of H2O ([1]; highest among the salts tested): 8% |
| Crystalline; non-Hygroscopic with no | 0.059 mg/mL | COc1cc2nccc(Oc3ccc(NC(=O)C4(C(=O)Nc5ccc(F)cc5)CC4)cc3)c2cc1OC.O=C(O)C[C@@H](O)C(=O)O [L-Malate, cyclopropane-1,1-dicarboxylic acid [4-(6,7-dimethoxy-quinoline-4-yloxy)-phenyl]-amide (4-fluoro-phenyl)-amide, (L) malate salt] |  |  | Solubility (remark in words) ([2]; water solubility, listed as L-malate salt, malate salt): sufficient solubility; Stable up to (DSC/TGA) [3]: up to 185 °C; Change in assay, purity, moisture, and dissolution ([4]; 25° C./60 percent relative humidity (RH)): no change; Change in assay, purity, moisture, and dissolution ([4]; 40° C./60 percent RH): no change; Chemical/physical stability (remark in words) ([4]; salt screen summary table): chemical/physical stability.; Solid state phase and degree of crystallinity after exposure ([5]; 75 percent RH at 40° C. for 1 week): remained unchanged; Amount of water taken up ([1]; at 90 percent RH): about 0.60 weight percent |
|  | < 0.001 mg/mL | COc1cc2nccc(Oc3ccc(NC(=O)C4(C(=O)Nc5ccc(F)cc5)CC4)cc3)c2cc1OC [Free base, N-[4-[(6,7-Dimethoxy-4-quinolinyl)oxy]phenyl]-N′-(4-fluorophenyl)-1,1-cyclopropanedicarboxamide] |  | very low solubility |  |
|  |  | Tosylate | 0.007 mg/mL | Crystalline salt, low solubility |  |
| Crystalline but Hygroscopic; possible |  | Cl [Chloride] |  |  | Moisture sensitivity (phase behaviour on exposure) ([5]; high humidity (75 percent RH) and high temperature (40° C.)): changing phase |

| Compound | Hygroscopicity (remark in words) [1] | solubility [2, 7] | solubility [2, 6] | Solubility (remark in words) ([2]; water solubility) | also measured |
| --- | --- | --- | --- | --- | --- |
| O=C(O)[C@H](O)[C@@H](O)C(=O)O [L-Tartrate] | Hygroscopic. |  |  |  |  |
